Experimental data reported in PMC4266452, “Prediction of Thorough QT study results using action potential simulations based on ion channel screens” (Journal of Pharmacological and Toxicological Methods, 2014).
Like-named read-outs stand apart in the source and are kept apart here.

Assays:
[1] = ref Gintant (2011), cited from earlier work
Kv4.3/KChIP2.2 = biological target: T1, Kv4.3/KChIP2.2 (Homo sapiens, UniProt Q9UK17); assay: IonWorks Quattro Kv4.3/KChIP2.2 screen (AstraZeneca, Q); assay type: cell-based
T1 sequence (Q9UK17 1-655): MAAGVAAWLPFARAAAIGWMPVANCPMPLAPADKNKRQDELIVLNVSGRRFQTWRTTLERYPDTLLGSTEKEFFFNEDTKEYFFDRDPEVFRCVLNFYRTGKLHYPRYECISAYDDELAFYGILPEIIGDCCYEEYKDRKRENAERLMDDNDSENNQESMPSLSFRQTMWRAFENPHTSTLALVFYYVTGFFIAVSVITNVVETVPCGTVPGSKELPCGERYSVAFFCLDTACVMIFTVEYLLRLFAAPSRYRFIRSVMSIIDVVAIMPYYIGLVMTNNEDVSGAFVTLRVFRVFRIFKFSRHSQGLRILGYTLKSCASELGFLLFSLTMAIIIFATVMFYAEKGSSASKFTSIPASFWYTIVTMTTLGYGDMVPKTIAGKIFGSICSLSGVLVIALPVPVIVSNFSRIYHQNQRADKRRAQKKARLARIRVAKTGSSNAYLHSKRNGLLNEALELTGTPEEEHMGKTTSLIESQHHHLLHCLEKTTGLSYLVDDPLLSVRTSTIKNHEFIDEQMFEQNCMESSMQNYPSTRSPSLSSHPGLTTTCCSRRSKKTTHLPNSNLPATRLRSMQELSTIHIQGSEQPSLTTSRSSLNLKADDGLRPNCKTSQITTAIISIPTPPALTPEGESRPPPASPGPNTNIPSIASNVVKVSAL
T1 sequence (Q9NS61 1-270 partner): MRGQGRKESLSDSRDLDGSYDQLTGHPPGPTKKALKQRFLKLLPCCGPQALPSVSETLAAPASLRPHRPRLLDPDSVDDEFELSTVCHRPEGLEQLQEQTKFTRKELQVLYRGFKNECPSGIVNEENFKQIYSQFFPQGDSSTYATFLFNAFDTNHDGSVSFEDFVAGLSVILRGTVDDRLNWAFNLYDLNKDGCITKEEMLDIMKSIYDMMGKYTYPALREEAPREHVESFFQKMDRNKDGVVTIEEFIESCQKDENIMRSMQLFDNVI

hERG [2] = biological target: T2, hERG (Homo sapiens, UniProt Q12809)
[3] = Plasma concentration (Cmax) during the TQT study, total and calculated free; assay type: in vivo, human; details: for Cmax TOTAL: calculated from ng/mL and molecular weight
[4] = system: QT interval on the body surface ECG; details: cited from earlier work
hERG [5] = biological target: T2, hERG; assay: IonWorks Quattro hERG screen (AstraZeneca, Q)
hERG [6] = biological target: T2, hERG; details: cited from earlier work
[7] = ref Gintant (2011); cited from earlier work
NaV1.5 [8] = biological target: T3, NaV1.5 (Homo sapiens, UniProt Q14524); assay: Second IonWorks Quattro NaV1.5 screen (GSK, Q2)
CaV1.2 [9] = biological target: T4, CaV1.2 (Homo sapiens, UniProt Q13936); assay: IonWorks Quattro CaV1.2 screen (AstraZeneca, Q)
KCNQ1/MinK [10] = biological target: T5, KCNQ1/MinK (Homo sapiens, UniProt P51787)
CaV1.2 [11] = biological target: T4, CaV1.2; assay: IonWorks Barracuda CaV1.2 screen (GSK, B)
NaV1.5 [12] = biological target: T3, NaV1.5; assay: IonWorks Quattro NaV1.5 screen (AstraZeneca, Q)
KCNQ1/MinK [13] = biological target: T5, KCNQ1/MinK; assay: IonWorks Quattro KCNQ1/MinK screen (AstraZeneca, Q); details: −log10 of IC50 in Molar
[14] = IonWorks Quattro, −log10 of IC50 in Molar, Hill n = 1, 0.0 = pIC50 ≤ 0 fitted
[15] = Cmax high, calculated with PPB and molecular weight
[16] = Cmax low, calculated with PPB and molecular weight
[17] = IonWorks Quattro, −log10 of IC50 in Molar, Hill n = 1, […]
[18] = second independent Quattro screening, −log10 of IC50 in Molar, 0.0 = pIC50 ≤ 0 fitted

SMILES	Cmax TOTAL ([1]; Cmax high) [ng/mL]	Cmax TOTAL ([1]; Cmax low) [ng/mL]	Kv4.3 pIC50 (Q) (Kv4.3/KChIP2.2; [14])	Free plasma concentration ([3]; Cmax high) [nM]	Cmax FREE ([3]; Cmax high, calculated with PPB) [ng/mL]	Cmax FREE [3, 15] [nM]	Free plasma concentration ([3]; Cmax low) [nM]	Cmax TOTAL ([3]; Cmax low) [nM]	Cmax FREE ([3]; Cmax low, calculated with PPB) [ng/mL]	Cmax FREE [3, 16] [nM]	PPB (percent plasma binding) [7]	Cmax TOTAL ([3]; Cmax high) [nM]	CaV1.2 pIC50 (Q) (CaV1.2 [9])	CaV1.2 pIC50 (B) (CaV1.2 [11])	NaV1.5 pIC50 (Q) (NaV1.5 [12]; [14])	also measured
CN(C)CC(c1ccc(O)cc1)C1(O)CCCCC1 (centres unmarked) [Desvenlafaxine]	1466.00	470.00	2.3	3902	1027.67	3901.84	1251	1784.49	329.47	1250.93						hERG pIC50 (B) (hERG [2]): ≤ 0.0; QT shortening in the TQT study ([4]; range over the three drugs, ref Gintant (2011)): 2 to 7 ms; relationship between exposure and QTc in words (COMMENTS) ([4]; ref Gintant (2011)): Desvenlafaxine; no clear relationship between exposure and QTc; IC50 (hERG [5]): 20 mM; hERG pIC50 (M) (hERG [6]): 3.6
CNCC[C@H](Oc1cccc2ccccc12)c1cccs1 [Duloxetine]	300				30	100.869					90%	1008.69	4.0	4.6		Kv4.3 pIC50 (Q) (Kv4.3/KChIP2.2): 4.0; NaV1.5 pIC50 (Q2) (NaV1.5 [8]): 4.8; KCNQ1 pIC50 (Q) (KCNQ1/MinK [10]): 5.0; NaV1.5 pIC50 (Q) (NaV1.5 [12]): 5.1
COC[C@@H](NC(C)=O)C(=O)NCc1ccccc1 [Lacosamide]				79618.4	19928	79618.4	41311.4		10340	41311.4	6% PPB					CaV1.2 pIC50 (Q) (CaV1.2 [9]; [17]): 4.3; KCNQ1 pIC50 (Q) (KCNQ1/MinK [10]): 3.6
Nc1nnc(-c2cccc(Cl)c2Cl)c(N)n1 [Lamotrigine]	9610	7220		37525.9	4324.5	37525.9	28193.2		3249		55% PPB	37525.9	2.8	2.9	4.0	NaV1.5 pIC50 (Q2) (NaV1.5 [8]; [18]): 4.4
CS(=O)(=O)CCNCc1ccc(-c2ccc3ncnc(Nc4ccc(OCc5cccc(F)c5)c(Cl)c4)c3c2)o1 [Lapatinib]	3203.000	1389.000		55.12	32.030	55.123	23.9	2390.459	13.890	23.905		5512.340	2.7	1.8	2.5	KCNQ1 pIC50 (Q) (KCNQ1/MinK [13]; Hill n = 1, 0.0 = pIC50 ≤ 0 fitted): 3.6
Cc1c(O)cccc1C(=O)N[C@@H](CSc1ccccc1)[C@H](O)CN1C[C@H]2CCCC[C@H]2C[C@H]1C(=O)NC(C)(C)C [Nelfinavir]	10900	8300	2.3	80.63	45.78	80.6284	61.4	14618.1	34.86	61.3959		19197.2				upper 90% confidence limit of QTc change ([4]; at every time point, ref Damle et al., J Clin Pharm. (49):291-300. 2009): a) upper 90% confidence limit below 10 msec at every; TQT study outcome in words (COMMENTS) ([4]; ref Gintant (2011)): Damle et al concludes negative TQT study since; relationship between exposure and QTc in words (COMMENTS) ([4]; ref Gintant (2011)): time point and b) PK-PD model slopes were negative; IC50 (hERG [5]): 31.6 mM; hERG pIC50 (M) (hERG [6]): 4.9
Cc1nc2n(c(=O)c1CCN1CCC(c3noc4cc(F)ccc34)CC1)CCCC2O (centres unmarked) [Paliperidone]	113	35	4.2	71.54	30.51	71.5374	22.16	82.0652	9.45	22.1576	73% PPB	264.953	3.4	3.0	4.6	NaV1.5 pIC50 (Q2) (NaV1.5 [8]; [18]): 3.8
CCN(CC)CCNC(=O)c1c(C)[nH]c(/C=C2\C(=O)Nc3ccc(F)cc32)c1C [Sunitinib]	80.000		4.3	7.51	4.000	7.510						150.207				CaV1.2 pIC50 (Q) (CaV1.2 [9]; [14]): 4.1; CaV1.2 pIC50 (B) (CaV1.2 [11]; IonWorks Barracuda, −log10 of IC50 in Molar, Hill n = 1, 0.0 = pIC50 ≤ 0 fitted): 3.7
Cc1ccc(O)c([C@H](CCN(C(C)C)C(C)C)c2ccccc2)c1 [Tolterodine]	19.00	9.10		1.343	0.703	1.343	0.6434	17.389	0.337	0.643	96.30%	36.307		4.6		KCNQ1 pIC50 (Q) (KCNQ1/MinK [13]; Hill n = 1, […]): 4.1; Kv4.3 pIC50 (Q) (Kv4.3/KChIP2.2; [17]): 4.9
